{"source": "paper PMC11274801", "about": "“A Novel PDE10A Inhibitor for Tourette Syndrome and Other Movement Disorders” (Cells, 2024)", "key": {"[1]": {"system": "primates", "design": "method as in PMID 24490227", "conditions": "cited from earlier work"}, "[2]": {"system": "striatal cAMP and cGMP", "assay": "cAMP and cGMP levels in the striatum", "format": "in vivo, rat", "conditions": "maximal dose 30 mg/kg", "protocol": "The striatum was dissected, weighed, and then frozen in liquid nitrogen. For cyclic nucleotide measurements, frozen striatal tissue was homogenized in 5% trichloroacetic acid and centrifuged and the supernatant was collected. Supernatants were ether-washed and then the cAMP and cGMP levels in the aqueous phase were determined by enzyme immunoassay using kits from Cayman Chemical Co. (Ann Arbor, MI, USA)"}, "[3]": {"system": "patients with stage I–II HD", "design": "method as in earlier work", "conditions": "cited from earlier work"}, "[4]": {"system": "acute schizophrenia", "conditions": "press release ref 44; cited from earlier work"}, "[5]": {"system": "D2 receptor", "conditions": "2–5 mg daily ref 54; cited from earlier work"}}}
{"smiles": "Cn1cc(-c2ccncc2)c(-c2ccc(OCc3ccc4ccccc4n3)cc2)n1", "note": "[MP-10]", "values": [{"measurement": "effect on motivational aspects of behavior", "setting": "[1]", "value": "dampen motivational aspects of behavior to a greater extent than a D2 antagonist"}, {"measurement": "effect on striatal cAMP and cGMP levels", "setting": "[2]", "value": "increases"}, {"measurement": "primary outcome (UHDRS-TMS) and clinical global impression of improvement", "setting": "[3]; 26-week phase 2, 272 patients ref 45", "value": "no improvement in the primary outcome measure"}, {"measurement": "quantitative motor assessment (Q-motor)", "setting": "[3]; 26-week phase 2 ref 45", "value": "dose-dependent improvement"}]}
{"smiles": "Cc1ncc(C)n2nc(-c3ccn4cc(-c5ccccc5)nc4n3)nc12", "note": "[CPL500-036]", "values": [{"measurement": "efficacy in acute schizophrenia", "setting": "[4]", "value": "positive efficacy vs. placebo"}]}
{"smiles": "O=C(CCCN1CCC(O)(c2ccc(Cl)cc2)CC1)c1ccc(F)cc1", "note": "[haloperidol]", "values": [{"measurement": "D2 occupancy", "setting": "[5]", "value": "60–80%"}]}
